Blank lines part the entries; values can stand above or below the molecule they belong to.
Legend:
Assay type in all cases: cell-based
[1] = molecular target: T1, human SGLT2 (Homo sapiens, UniProt P31639); test: Inhibition test for sodium-dependent sugar uptake in CHO-K1 cells stably expressing human SGLT2, Method B; settings: uptake 37° C., 60 minutes, read-out: IC50 for hSGLT2 Method B
T1 construct: expressed in transfected cells; host or cells: CHO-K1
T1 sequence (P31639 1-672): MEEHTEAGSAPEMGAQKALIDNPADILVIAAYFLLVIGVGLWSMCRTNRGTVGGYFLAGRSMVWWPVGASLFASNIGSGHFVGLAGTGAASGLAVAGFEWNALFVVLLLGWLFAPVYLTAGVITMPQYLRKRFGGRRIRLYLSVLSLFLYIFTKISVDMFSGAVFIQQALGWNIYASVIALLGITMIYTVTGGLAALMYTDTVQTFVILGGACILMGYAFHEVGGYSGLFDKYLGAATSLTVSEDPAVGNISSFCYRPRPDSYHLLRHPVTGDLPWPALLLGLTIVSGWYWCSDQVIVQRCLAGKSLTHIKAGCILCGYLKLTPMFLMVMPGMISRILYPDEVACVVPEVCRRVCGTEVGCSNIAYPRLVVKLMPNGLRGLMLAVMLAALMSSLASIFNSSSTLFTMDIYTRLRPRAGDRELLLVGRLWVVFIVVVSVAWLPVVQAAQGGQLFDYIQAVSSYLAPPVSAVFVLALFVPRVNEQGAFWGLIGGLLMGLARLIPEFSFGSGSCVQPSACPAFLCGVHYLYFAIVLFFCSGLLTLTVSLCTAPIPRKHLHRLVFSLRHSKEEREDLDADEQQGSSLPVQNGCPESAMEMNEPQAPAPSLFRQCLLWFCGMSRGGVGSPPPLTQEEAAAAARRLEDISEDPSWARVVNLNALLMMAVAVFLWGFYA
Experimental: (§1) (2) Creation of CHO-K1 Cells Stably Expressing Human SGLT2
(§2) Method B: A plasmid vector expressing human SGLT2 protein was transfected into CHO-K1 cells using lipofectamine LTX (Invitrogen). The cells were cultured in the presence of 1000 μg/mL geneticin to select resistant strains, followed by screening in the system shown below using sugar uptake capacity as an indicator to obtain SGLT2-expressing cells.
(§3) (3) Inhibition Test for Sodium-Dependent Sugar Uptake in Stably Expressing Cells
(§4) The stably expressing cells prepared above were used in the following test.
(§5) Pretreatment buffer (140 mM choline chloride, 2 mM KCl, 1 mM CaCl2, 1 mM MgCl2, 10 mM HEPES/5 mM Tris, pH 7.4) was added in a volume of 200 μL to the cells stably expressing SGLT1 or 2 mL for Method A and 200 μL for Method B to the cells stably expressing SGLT2, followed by incubation for 20 minutes. The pretreatment buffer was removed and replaced by uptake buffer containing a test compound (1 mM methyl α-D-glucopyranoside (containing [^14C]methyl α-D-glucopyranoside), 140 mM NaCl, 2 mM KCl, 1 mM CaCl2, 1 mM MgCl2, 10 mM HEPES/5 mM Tris, pH 7.4) in a volume of 75 μL for SGLT1 and SGLT2 in Method B or 200 μL for SGLT2 in Method A. Uptake reaction was performed at 37° C. for 30 minutes (SGLT1) or 60 minutes (SGLT2). After the reaction, the cells were washed twice with washing buffer (10 mM methyl α-D-glucopyranoside, 140 mM choline chloride, 2 mM KCl, 1 mM CaCl2, 1 mM MgCl2, 10 mM HEPES/5 mM Tris, pH 7.4) in a volume of 200 μL for SGLT1 and SGLT2 in Method B or 2 mL for SGLT2 in Method A, and then dissolved in a 0.25 M NaOH solution (75 μL for SGLT1 and SGLT2 in Method B or 400 μL for SGLT2 in Method A). A liquid scintillator (Perkin Elmer) was added and mixed well with each sample, followed by measurement of radioactivity using a β-ray analyzer. For the control group, uptake buffer containing no test compound was prepared. Moreover, another uptake buffer containing choline chloride instead of NaCl was also prepared for basal uptake.
(§6) For determination of IC50 values, test compounds prepared at 6 appropriate concentrations were used and their concentrations required for 50% inhibition of the amount of sugar uptake (IC50 values) were calculated relative to the amount of sugar uptake in the control group (100%).

[2] = molecular target: T2, human SGLT1 (Homo sapiens, UniProt P13866); test: Inhibition test for sodium-dependent sugar uptake in CHO-K1 cells stably expressing human SGLT1; settings: [14C]methyl α-D-glucopyranoside uptake, 37° C., 30 minutes, read-out: IC50 for hSGLT1
T2 construct: expressed in transfected cells; host or cells: CHO-K1
T2 sequence (P13866 1-664): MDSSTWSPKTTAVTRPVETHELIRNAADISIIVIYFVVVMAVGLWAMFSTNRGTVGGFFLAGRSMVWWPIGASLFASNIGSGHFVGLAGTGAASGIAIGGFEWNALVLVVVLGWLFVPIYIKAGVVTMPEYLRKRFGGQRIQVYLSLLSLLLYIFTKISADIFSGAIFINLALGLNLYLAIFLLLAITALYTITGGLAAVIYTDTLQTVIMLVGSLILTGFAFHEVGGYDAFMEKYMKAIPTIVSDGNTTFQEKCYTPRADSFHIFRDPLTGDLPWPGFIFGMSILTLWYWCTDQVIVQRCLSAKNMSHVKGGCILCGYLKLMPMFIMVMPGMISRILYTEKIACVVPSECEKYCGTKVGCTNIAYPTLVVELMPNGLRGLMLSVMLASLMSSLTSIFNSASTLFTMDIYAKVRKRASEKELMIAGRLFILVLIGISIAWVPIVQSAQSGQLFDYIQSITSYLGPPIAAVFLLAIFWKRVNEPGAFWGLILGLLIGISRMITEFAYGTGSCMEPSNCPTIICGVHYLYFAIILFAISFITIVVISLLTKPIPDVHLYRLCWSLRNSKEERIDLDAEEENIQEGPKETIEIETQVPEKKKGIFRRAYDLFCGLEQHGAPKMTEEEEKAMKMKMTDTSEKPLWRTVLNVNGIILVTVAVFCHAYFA
Experimental: (1) Creation of CHO-K1 Cells Stably Expressing Human SGLT1
as §2, with “A” for “Method B: A”, “SGLT1” for “SGLT2”, “2000” for “LTX”, “500” for “1000”, “SGLT1-expressing” for “SGLT2-expressing”
as §3, §4, §5, §6

[3] = molecular target: T3, human SGLT2 protein modified to have LeuGluSerArgGlyProVal added to the carboxy-terminal final residue (Homo sapiens, UniProt P31639); test: Inhibition test for sodium-dependent sugar uptake in CHO-K1 cells stably expressing human SGLT2, Method A; settings: uptake 37° C., 60 minutes, read-out: IC50 for hSGLT2 Method A
T3 construct: expressed in transfected cells; host or cells: CHO-K1
T3 sequence (P31639 with tags, fused parts or gaps): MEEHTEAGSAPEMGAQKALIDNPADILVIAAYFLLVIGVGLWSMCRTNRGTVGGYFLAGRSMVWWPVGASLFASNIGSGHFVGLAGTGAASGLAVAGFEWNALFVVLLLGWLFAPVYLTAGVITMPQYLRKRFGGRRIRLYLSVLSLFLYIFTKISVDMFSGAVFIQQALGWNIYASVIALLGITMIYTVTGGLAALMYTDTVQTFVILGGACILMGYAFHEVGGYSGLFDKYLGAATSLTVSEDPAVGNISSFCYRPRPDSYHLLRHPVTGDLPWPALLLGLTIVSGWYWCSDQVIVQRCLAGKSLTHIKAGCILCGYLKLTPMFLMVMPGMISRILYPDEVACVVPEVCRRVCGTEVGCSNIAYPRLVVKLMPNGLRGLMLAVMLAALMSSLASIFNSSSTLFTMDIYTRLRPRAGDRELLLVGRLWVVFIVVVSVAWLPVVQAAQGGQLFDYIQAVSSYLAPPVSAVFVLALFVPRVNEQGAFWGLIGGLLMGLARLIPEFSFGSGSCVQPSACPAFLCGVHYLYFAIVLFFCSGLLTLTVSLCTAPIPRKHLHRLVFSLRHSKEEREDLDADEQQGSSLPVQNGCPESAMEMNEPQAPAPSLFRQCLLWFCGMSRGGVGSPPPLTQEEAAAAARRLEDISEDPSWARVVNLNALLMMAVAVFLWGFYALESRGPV
Experimental: as §1
as §2, with “A (described in WO2007/136116):” for “B:”, “protein modified to have LeuGluSerArgGlyProVal added to the carboxy-terminal final residue” for “protein”, “2000” for “LTX”, “500” for “1000”, “hygromycin B” for “geneticin”
as §3, §4, §5, §6

SMILES: COc1cc(C(C)C)c(Cc2ccc(/C=C/C(C)(C)C(=O)NC(C)(C)C(=O)NCCN)cc2C)cc1[C@@H]1O[C@H](CO)[C@@H](O)[C@H](O)[C@H]1O [Example 8-3]
IC50 [1]: 476 nM
IC50 [2]: 50 nM
IC50 [3]: 15700 nM

SMILES: COc1cc(C(C)C)c(Cc2ccc(/C=C/C(C)(C)C(=O)NC(C)(C)C(=O)N3CCC(N(C)C)CC3)cc2C)cc1[C@@H]1O[C@H](CO)[C@@H](O)[C@H](O)[C@H]1O [Example 12-2]
IC50 [1]: 113 nM
IC50 [2]: 70 nM
IC50 [3]: 4950 nM

SMILES: COc1cc(C(C)C)c(Cc2ccc(/C=C/C(C)(C)C(=O)NC(C)(C)C(=O)N3CCN(C)CC3)cc2C)cc1[C@@H]1O[C@H](CO)[C@@H](O)[C@H](O)[C@H]1O [Example 10-2]
IC50 [1]: 281 nM
IC50 [2]: 55 nM
IC50 [3]: 14900 nM

SMILES: COc1cc(C(C)C)c(Cc2ccc(/C=C/C(C)(C)C(=O)NC(C)(C)C(=O)NC3CCNCC3)cc2C)cc1[C@@H]1O[C@H](CO)[C@@H](O)[C@H](O)[C@H]1O [Example 14-2]
IC50 [1]: 82 nM
IC50 [2]: 72 nM
IC50 [3]: 2390 nM

SMILES: CCN1CCN(C(=O)C(C)(C)NC(=O)C(C)(C)/C=C/c2ccc(Cc3cc([C@@H]4O[C@H](CO)[C@@H](O)[C@H](O)[C@H]4O)c(OC)cc3C(C)C)c(C)c2)CC1 [Example 11-2]
IC50 [1]: 546 nM
IC50 [2]: 59 nM
IC50 [3]: 9750 nM

SMILES: CCN1CCN(C(=O)C(C)(C)NC(=O)C(C)(C)/C=C/c2ccc(Cc3cc([C@@H]4O[C@H](CO)[C@@H](O)[C@H](O)[C@H]4O)c(O)cc3C(C)C)c(C)c2)CC1 [Example 4-2]
IC50 [1]: 76 nM
IC50 [2]: 46 nM
IC50 [3]: 1640 nM

The next lines start with the values.

IC50 [1]: 81 nM
IC50 [2]: 35 nM
IC50 [3]: 1720 nM
SMILES: Cc1cc(/C=C/C(C)(C)C(=O)NC(C)(C)C(=O)N2CCN(C)CC2)ccc1Cc1cc([C@@H]2O[C@H](CO)[C@@H](O)[C@H](O)[C@H]2O)c(O)cc1C(C)C [Example 3-2]

IC50 [2]: 46 nM
IC50 [3]: 11100 nM
SMILES: COc1cc(C(C)C)c(Cc2ccc(/C=C/C(C)(C)C(=O)NC(C)(C)C(=O)NCCN(C)C)cc2C)cc1[C@@H]1O[C@H](CO)[C@@H](O)[C@H](O)[C@H]1O [Example 7-2]

IC50 [1]: 26 nM
IC50 [2]: 42 nM
IC50 [3]: 979 nM
SMILES: COc1cc(C(C)C)c(Cc2ccc(/C=C/C(C)(C)C(=O)NC(C)(C)C(=O)N3CCN(C)CC3)cc2)cc1[C@@H]1O[C@H](CO)[C@@H](O)[C@H](O)[C@H]1O [Example 17-2]

IC50 [1]: 200 nM
IC50 [2]: 34 nM
IC50 [3]: 7230 nM
SMILES: COc1cc(C(C)C)c(Cc2ccc(/C=C/C(C)(C)C(=O)NC(C)(C)C(=O)N3CCNCC3)cc2C)cc1[C@@H]1O[C@H](CO)[C@@H](O)[C@H](O)[C@H]1O [Example 9-2]

IC50 [1]: 17 nM
IC50 [2]: 38 nM
IC50 [3]: 1020 nM
SMILES: COc1cc(C(C)C)c(Cc2ccc(/C=C/C(C)(C)C(=O)NC(C)(C)C(=O)N3CCNCC3)cc2)cc1[C@@H]1O[C@H](CO)[C@@H](O)[C@H](O)[C@H]1O [Example 16-2]

IC50 [1]: 28 nM
IC50 [2]: 30 nM
IC50 [3]: 971 nM
SMILES: Cc1cc(/C=C/C(C)(C)C(=O)NC(C)(C)C(=O)N2CCNCC2)ccc1Cc1cc([C@@H]2O[C@H](CO)[C@@H](O)[C@H](O)[C@H]2O)c(O)cc1C(C)C [Example 2-2]

— patent US8466113B2, “4-isopropylphenyl glucitol compounds as SGLT1 inhibitors” (Taisho Pharmaceutical Co., Ltd., priority 2009, dated 2013)
